In US20240408194A1, “DNA ORIGAMI SUBUNIT VACCINE FOR PREVENTION OF SARS-CoV-2 VARIANT INFECTION” (priority 2021, published 2024):
Entries after “also recorded” stand apart in the source; their conditions may differ.

System: spike and variants
Type: binding, SARS-COV-2

LCB1
binding affinity for spike and variants: up to picomolar; also recorded: high affinity
